Series [1] has as its system primate. As to conditions: Sub-acute repeat dose toxicity, Oral, Gavage/Intubation, dose end: 23 day, group: systemic.
Series [2] relates to rat. As to conditions: Sub-acute repeat dose toxicity, sprague dawley, Oral, Gavage/Intubation, dose end: 29 day, group: systemic.
The subject of series [3] is primate. As to conditions: Sub-acute repeat dose toxicity; Oral; Gavage/Intubation; dose end: 34 day; group: systemic; systemic / pathology microscopic / intestine small / erosion + systemic / pathology microscopic / intestine small / hemorrhage + systemic / ….
Series [4] has as its system rat. As to conditions: Sub-acute repeat dose toxicity, sprague dawley, Oral, Gavage/Intubation, dose end: 14 day, group: systemic.
Series [5] concerns rat. As to conditions: Carcinogenicity, fischer, Oral, Feed, dose end: 2 year, group: systemic.
The subject of series [6] is rat. As to conditions: Multigenerational reproductive toxicity study, sprague dawley, Oral, Gavage/Intubation, dose end: 2 generation.
Series [7] relates to mouse. As to conditions: Subchronic oral toxicity in rodents, b6c3f1, Gavage/Intubation, dose end: 14 week, group: systemic.
The test system of series [8] is mouse. As to conditions: Carcinogenicity; b6c3f1; Oral; Gavage/Intubation; dose end: 105 week; group: systemic; systemic / pathology microscopic / nose / dilatation + systemic / pathology microscopic / nose / hyperplasia + systemic / pathology ….
Series [9] concerns rat. As to conditions: Subchronic oral toxicity in rodents, fischer, Gavage/Intubation, dose end: 14 week, group: systemic.
Series [10] has as its system rat. As to conditions: Carcinogenicity, fischer, Oral, Gavage/Intubation, dose end: 105 week, group: systemic.
In series [11] the test system is rat. As to conditions: Prenatal developmental toxicity study, sprague dawley, Oral, Gavage/Intubation, dose end: 19 GD.
Series [12] deals with rabbit. As to conditions: Prenatal developmental toxicity study, himalayan, Oral, Gavage/Intubation, dose end: 18 GD.
Series [13] deals with rat. As to conditions: Fertility (Segment I), wistar, Oral, Gavage/Intubation, dose end: 7 GD.
Series [14] relates to rat. As to conditions: Sub-acute repeat dose toxicity, sprague dawley, Oral, Gavage/Intubation, dose end: 4 week, group: systemic.
The subject of series [15] is rabbit. As to conditions: Prenatal developmental toxicity study, himalayan, Injection, Intravenous, dose end: 18 GD, group: maternal.
Series [16] concerns rat. As to conditions: Sub-acute repeat dose toxicity; long evans; Oral; Gavage/Intubation; dose end: 4 week; group: systemic; systemic / in life observation / body weight / body weight gain + systemic / in life observation / clinical signs / drooping eyelids (ptosis….
Series [17] relates to rabbit. As to conditions: Prenatal developmental toxicity study, himalayan, Oral, Gavage/Intubation, dose end: 18 GD. This is another data set of the same source.
The subject of series [18] is rat. As to conditions: Combined chronic toxicity/carcinogenicity; fischer; Oral; Feed; dose end: 365 day; group: systemic; systemic / in life observation / body weight / body weight.
Series [19] concerns mouse. As to conditions: Combined chronic toxicity/carcinogenicity; other; Oral; Feed; dose end: 365 day; group: systemic; systemic / pathology gross / full gross necropsy / lymphoma malignant.
[20] abbreviates: systemic / clinical chemistry / alanine aminotransferase (alt/sgpt) / alanine aminotransferase (alt/sgpt) + systemic / clinical chemistry / ….
The mark [21] stands for this setting: systemic / in life observation / clinical signs / emesis.
Setting [22] is: systemic / clinical chemistry / [other] / [other] + systemic / clinical chemistry / protein / protein + systemic / hematology / erythrocyte….
The mark [23] stands for this setting: systemic / hematology / platelet / platelet + systemic / in life observation / body weight / body weight gain + systemic / in life ….
[24] abbreviates: systemic / in life observation / body weight / body weight gain.
The mark [25] stands for this setting: systemic / in life observation / body weight / body weight + systemic / pathology microscopic / urinary bladder / hyperplasia.
Setting [26] is: systemic / in life observation / body weight / body weight + systemic / pathology microscopic / urinary bladder / hyperplasia + systemic / ….
Setting [27] is: group: offspring, developmental / developmental landmark / nipple development / nipple development + systemic / in life observation / body weight / offspring….
[28] abbreviates: group: offspring, systemic / pathology microscopic / stomach / hyperkeratosis + systemic / pathology microscopic / stomach / hyperplasia.
Where [29] appears, read: group: parental, systemic / in life observation / body weight / body weight + systemic / in life observation / body weight / dam weight + systemic / in life ….
[30] abbreviates: group: parental, systemic / organ weight / liver / relative to body weight + systemic / pathology microscopic / stomach / hyperkeratosis + systemic / ….
The mark [31] stands for this setting: group: reproductive, reproductive / offspring survival early / live fetuses / live fetuses.
Setting [32] is: systemic / organ weight / liver / relative to body weight.
Setting [33] is: systemic / clinical chemistry / cytochrome p450, nos / cytochrome p450, nos.
The mark [34] stands for this setting: systemic / organ weight / liver / absolute + systemic / organ weight / liver / relative to body weight + systemic / pathology microscopic / ….
[35] abbreviates: systemic / pathology microscopic / nose / atrophy + systemic / pathology microscopic / nose / metaplasia.
The mark [36] stands for this setting: group: developmental, developmental / developmental malformation / bone / unossified + systemic / in life observation / body weight / fetal weight.
Where [37] appears, read: group: maternal, systemic / in life observation / body weight / body weight + systemic / in life observation / body weight / body weight gain + systemic / in….
Where [38] appears, read: group: developmental, developmental / developmental malformation / bone / incomplete ossification + developmental / developmental malformation / bone / short + ….
Setting [39] is: group: maternal, systemic / in life observation / clinical signs / motor activity + systemic / in life observation / mortality / mortality.
The mark [40] stands for this setting: group: maternal, reproductive / reproductive performance / implantations / implantations + reproductive / reproductive performance / preimplantation loss / ….
Where [41] appears, read: group: parental, systemic / in life observation / clinical signs / salivation + systemic / in life observation / clinical signs / tremors + systemic / in ….
[42] abbreviates: systemic / clinical chemistry / adrenocorticotropic hormone (acth) / adrenocorticotropic hormone (acth).
[43] abbreviates: systemic / clinical chemistry / adrenocorticotropic hormone (acth) / adrenocorticotropic hormone (acth) + systemic / clinical chemistry / ….
The mark [44] stands for this setting: systemic / in life observation / body weight / body weight gain + systemic / in life observation / food consumption / food consumption + ….
The mark [45] stands for this setting: group: developmental, developmental / developmental malformation / paw / digit / [other].
Setting [46] is: group: maternal, systemic / in life observation / body weight / body weight gain + systemic / in life observation / clinical signs / [other] + systemic / in ….
[47] abbreviates: group: maternal, systemic / in life observation / clinical signs / ataxia + systemic / in life observation / clinical signs / motor activity + systemic / in ….

`NC(=O)n1c(O)c(C(=O)c2ccc(Cl)s2)c2cc(Cl)ccc21`: the LOAEL – broadly, the lowest tested level that showed an adverse finding – is above 30 mg/kg/day in the series with primate [1] (setting [20]), above 30 mg/kg/day in the series on rat [2] (setting [22]), above 10 mg/kg/day in the series with primate [3] and above 100 mg/kg/day with rat [4] (setting [23]). The no observed adverse effect level (NOAEL) (in general, the highest dose or exposure tested at which no adverse effect was seen) in the series on primate [1] (setting [20]) was at least 30 mg/kg/day; with rat [2] (setting [22]), at least 30 mg/kg/day; with primate [3], at least 10 mg/kg/day; in the series on rat [4] (setting [23]) it was at least 100 mg/kg/day. Also, the LEL was 1 mg/kg/day with primate [1] (setting [21]), 10 mg/kg/day in the series with rat [2] (systemic / clinical chemistry / protein / protein + systemic / hematology / erythrocyte (rbc) count differential / erythrocyte (rbc) + …), 3 mg/kg/day with primate [3] and 10 mg/kg/day in the series on rat [4] (setting [24]). Further, the NEL is below 1 mg/kg/day in the series on primate [1] (setting [21]), 3 mg/kg/day with rat [2] (setting [22]), 1 mg/kg/day in the series on primate [3] and below 10 mg/kg/day with rat [4] (setting [24]).

Take `Cc1ccccc1N.Cl` [2-Methylaniline hydrochloride]: in the series on rat [5] (setting [25]), the LOAEL was determined as 300 mg/kg/day and the NOAEL was below 300 mg/kg/day. In the series with rat [5] (setting [26]), the LEL is 300 mg/kg/day and the NEL is below 300 mg/kg/day.

`C/C=C/c1ccc(O)c(OC)c1` [Isoeugenol]: the LOAEL in the series on rat [6] (setting [27]) was above 700 mg/kg/day; in the series on rat [6] (setting [29]) it was above 700 mg/kg/day; in the series on rat [6] (setting [31]), above 700 mg/kg/day; with mouse [7] (systemic / pathology microscopic / nose / atrophy + systemic / in life observation / body weight / body weight + systemic / in life …) it was 600 mg/kg/day; with mouse [8] it was 75 mg/kg/day; in the series on rat [9] (setting [34]), 600 mg/kg/day. Besides, the LOAEL with rat [10] (setting [35]) was 150 mg/kg/day; in the series with rat [11] (setting [36]), 1000 mg/kg/day; with rat [11] (setting [37]), 250 mg/kg/day. Moreover, the NOAEL in the series on rat [6] (setting [27]) is at least 700 mg/kg/day; with rat [6] (setting [29]) it was at least 700 mg/kg/day; in the series on rat [6] (setting [31]), at least 700 mg/kg/day; with mouse [7] (systemic / pathology microscopic / nose / atrophy + systemic / organ weight / lung / absolute), 300 mg/kg/day; in the series with mouse [8], below 75 mg/kg/day; in the series with rat [9] (setting [34]), 300 mg/kg/day. Besides, the NOAEL is 75 mg/kg/day with rat [10] (systemic / pathology microscopic / nose / atrophy + systemic / pathology microscopic / nose / metaplasia + systemic / pathology microscopic…), 500 mg/kg/day in the series with rat [11] (setting [36]) and below 250 mg/kg/day in the series with rat [11] (setting [37]). In addition, the LEL in the series on rat [6] (setting [28]) was 70 mg/kg/day; in the series on rat [6] (setting [30]), 70 mg/kg/day; with rat [6] (setting [31]), 700 mg/kg/day; with mouse [7] (setting [32]), 37.5 mg/kg/day; with mouse [8], 75 mg/kg/day; in the series on rat [9] (setting [33]), 75 mg/kg/day. The LEL in the series with rat [10] (setting [35]) stood at 75 mg/kg/day; with rat [11] (setting [36]), 1000 mg/kg/day; with rat [11] (setting [37]), 250 mg/kg/day. The NEL was below 70 mg/kg/day in the series on rat [6] (setting [28]); below 70 mg/kg/day with rat [6] (setting [30]); 230 mg/kg/day in the series with rat [6] (setting [31]); below 37.5 mg/kg/day in the series on mouse [7] (setting [32]); below 75 mg/kg/day with mouse [8]; 37.5 mg/kg/day in the series on rat [9] (setting [33]). For the same molecule, the values for the NEL in the series on rat [10] (setting [35]), in the series on rat [11] (setting [36]) and in the series with rat [11] (setting [37]) were below 75 mg/kg/day, 500 mg/kg/day and below 250 mg/kg/day, respectively.

Take `COc1cccc([C@H](O)C2CCN(CCc3ccc(F)cc3)CC2)c1OC` [Volinanserin]: the LEL in the series with rabbit [12] (setting [38]) was determined as 40 mg/kg/day; in the series on rabbit [12] (setting [39]) it was 40 mg/kg/day; in the series on rat [13] (setting [40]), 200 mg/kg/day; with rat [14] (setting [42]) it was 12.5 mg/kg/day; with rabbit [15] (systemic / in life observation / body weight / body weight gain + systemic / in life observation / food consumption / food consumption) it was 3 mg/kg/day; in the series with rat [16], 150 mg/kg/day. The LEL with rabbit [17] (setting [45]) and in the series with rabbit [17] (setting [47]) was 50 mg/kg/day throughout. In addition, the LOAEL in the series with rabbit [12] (setting [38]) is above 40 mg/kg/day; with rabbit [12] (setting [39]), above 40 mg/kg/day; in the series on rat [13] (setting [40]), above 200 mg/kg/day; in the series on rat [14] (setting [43]), above 75 mg/kg/day; in the series on rabbit [15] (setting [44]), above 4.5 mg/kg/day; in the series on rat [16], above 150 mg/kg/day. Further, the LOAEL in the series on rabbit [17] (setting [45]) and with rabbit [17] (setting [46]) was above 100 mg/kg/day each time. Moreover, the NEL with rabbit [12] (setting [38]) is 12.5 mg/kg/day; in the series on rabbit [12] (setting [39]), 12.5 mg/kg/day; in the series on rat [13] (setting [41]), 20 mg/kg/day; with rat [14] (setting [42]), below 12.5 mg/kg/day; in the series on rabbit [15] (setting [44]), 0.2 mg/kg/day; in the series with rat [16], 50 mg/kg/day. In addition, the NEL in the series on rabbit [17] (setting [45]) and in the series with rabbit [17] (setting [47]) was below 50 mg/kg/day each time. The NOAEL was at least 40 mg/kg/day in the series with rabbit [12] (setting [38]); at least 40 mg/kg/day with rabbit [12] (setting [39]); at least 200 mg/kg/day in the series on rat [13] (setting [40]); 20 mg/kg/day in the series on rat [13] (setting [41]); at least 75 mg/kg/day in the series with rat [14] (setting [43]); at least 4.5 mg/kg/day with rabbit [15] (setting [44]). The values for the NOAEL with rat [16], with rabbit [17] (setting [45]) and with rabbit [17] (setting [46]) were at least 150 mg/kg/day, at least 100 mg/kg/day and at least 100 mg/kg/day, respectively.

On to `Cc1ccc(NC(N)=O)cc1` [p-Tolylurea], for which, in the series with rat [18], the LEL is 100 mg/kg/day, the LOAEL was above 100 mg/kg/day, the NEL is below 100 mg/kg/day and the NOAEL was at least 100 mg/kg/day. Also, in the series with mouse [19], the LEL is 300 mg/kg/day, the LOAEL was above 300 mg/kg/day, the NEL was below 300 mg/kg/day and the NOAEL was at least 300 mg/kg/day.

The record behind these values is EPA's ToxRefDB 2.
